Reference: patent US7094593B1, “Method for improving the function of heterologous G protein-coupled receptors” (priority 1998, dated 2006)

Legend:
[1] = test system: Ce 5HTR-M3 MAR IC3Δ; test: Liquid culture yeast growth assay, Ce 5HTR containing the M3 MAR IC3Δ; assay type: cell-based, C. elegans; conditions: for antagonist effect on growth inducing effect of serotonin: antagonist at 10 μM
Protocol: In order to construct the IC3 replacement, PCR fragments encoding three domains were prepared by standard means. Fragment 1 contains the amino terminal-coding portion of the Ce 5HTR to the intracellular interface of the 5th TMD, amplified by PCR using oligonucleotides ([…]) (SEQ ID NO: 27) and ([…] […] […]) (SEQ ID NO: 28). The second fragment of the Ce 5HTR contains carboxy-terminal coding sequences starting proximal to the intracellular interface of the 6th TMD, amplified by PCR using oligonucleotides ([…]) (SEQ ID NO: 29) and ([…] […] […]) (SEQ ID NO: 30). The M3 MAR IC3Δ domain was amplified by PCR as described in Example 1.
These fragments were isolated, mixed and amplified by PCR with 5′ ([…]) (SEQ ID NO: 27) and 3′ ([…]) ([…]) oligonucleotides. The resulting fragment was digested with appropriate restriction endonucleases and assembled in p426GPD to place the mutated Ce 5HTR under control of the GPD promoter.
Yeast cells containing the Ce 5HTR were assayed in liquid culture. […] In similar reactions, the serotonergic antagonists lisuride and mianserin were added to each well at 10 μM. […] Ki values were determined using the equation of Cheng and Pruesoff. (Y Cheng et al. (1973)).

[2] = target: T1, wild type D. melanogaster MAR (DMAR) (Drosophila melanogaster, UniProt P16395); test: Liquid culture yeast growth assay, wild type DMAR; assay type: cell-based; conditions: yeast cells containing wild type DMAR
T1 construct: expressed in transfected cells; host or cells: Saccharomyces cerevisiae MPY578fc, plasmid pMP3
T1 sequence (P16395 1-805): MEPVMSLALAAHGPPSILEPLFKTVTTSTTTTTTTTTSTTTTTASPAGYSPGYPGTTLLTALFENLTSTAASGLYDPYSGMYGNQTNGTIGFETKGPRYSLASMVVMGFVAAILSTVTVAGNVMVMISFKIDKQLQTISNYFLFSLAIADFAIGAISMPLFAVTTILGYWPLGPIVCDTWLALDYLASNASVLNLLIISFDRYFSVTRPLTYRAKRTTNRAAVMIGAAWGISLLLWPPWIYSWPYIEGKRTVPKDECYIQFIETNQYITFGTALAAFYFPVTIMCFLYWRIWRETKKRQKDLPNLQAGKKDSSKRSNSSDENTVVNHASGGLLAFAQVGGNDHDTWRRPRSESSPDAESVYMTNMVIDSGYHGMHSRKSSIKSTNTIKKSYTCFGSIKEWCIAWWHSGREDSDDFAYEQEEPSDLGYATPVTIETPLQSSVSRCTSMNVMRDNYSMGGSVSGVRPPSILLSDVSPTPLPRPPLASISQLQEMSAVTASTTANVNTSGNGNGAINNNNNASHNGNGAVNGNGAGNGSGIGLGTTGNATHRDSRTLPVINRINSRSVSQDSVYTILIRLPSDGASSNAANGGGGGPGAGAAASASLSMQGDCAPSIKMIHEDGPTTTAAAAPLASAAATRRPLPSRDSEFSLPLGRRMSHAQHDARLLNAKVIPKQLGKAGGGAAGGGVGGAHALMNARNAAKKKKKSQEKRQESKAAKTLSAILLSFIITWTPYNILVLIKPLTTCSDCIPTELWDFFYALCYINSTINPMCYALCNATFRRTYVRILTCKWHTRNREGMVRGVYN
Protocol: (§1) In order to construct the IC3 replacement, PCR fragments encoding three domains were prepared by standard means. Fragment 1 consisted of the amino terminal coding portion of the Drosophila MAR up to an Agel site within the 5th TMD, amplified by PCR using oligonucleotides (AAA AGATCT AAA ATG […]) (SEQ ID NO: 7) and (CCA GTA GAG GAA […] AGGCCT AAGTAGAAGGCGGCCAGTGC) (SEQ ID NO: 8). The second fragment of the DMAR was composed of carboxy terminal coding sequences starting with a PmII site in the 6th TMD, amplified by PCR using oligonucleotides ([…]) (SEQ ID NO: 9) and (AAA CTCGAG […]) (SEQ ID NO: 10). The M3 MAR IC3Δ domain was amplified as an Agel-PmII fragment with coding sequence in frame with fragments 1 and 2, described in Example 1. These fragments were assembled in plasmid p426GPD to place the mutated DMAR under control of the GPD promoter. The wild type DMAR was cloned into the expression vector, pMP3, described in U.S. Pat. No. 5,691,188.

[3] = target: T2, DMAR-M3 MAR IC3Δ (Drosophila melanogaster, UniProt P16395, C285T/D301E/F279L/F286I/K296E/N304G/P303A/Q299T/R293K/W292Y); test: Liquid culture yeast growth assay, mutated DMAR containing the M3 MAR IC3Δ; assay type: cell-based, D. melanogaster; conditions: yeast cells containing mutated DMAR with M3 MAR IC3Δ
T2 construct: expressed in transfected cells; host or cells: Saccharomyces cerevisiae MPY578fc, plasmid p426GPD
Protocol: as §1

[4] = target: wild type human alpha2A adrenergic receptor (Homo sapiens, UniProt P08913); conditions: yeast cells containing wild type receptor, 18 hours
Protocol: (§2) Yeast cells containing the wild type IC3Δ human alpha2A adrenergic receptor were assayed in liquid culture using the alpha adrenergic receptor full agonist UK14304 (RBI) and partial agonist clonidine.

[5] = target: IC3Δ human alpha2A adrenergic receptor (Homo sapiens, UniProt P08913, DEL273-347)
Sequence of IC3Δ human alpha2A adrenergic receptor (P08913 with tags, fused parts or gaps DEL273-347 limits assumed): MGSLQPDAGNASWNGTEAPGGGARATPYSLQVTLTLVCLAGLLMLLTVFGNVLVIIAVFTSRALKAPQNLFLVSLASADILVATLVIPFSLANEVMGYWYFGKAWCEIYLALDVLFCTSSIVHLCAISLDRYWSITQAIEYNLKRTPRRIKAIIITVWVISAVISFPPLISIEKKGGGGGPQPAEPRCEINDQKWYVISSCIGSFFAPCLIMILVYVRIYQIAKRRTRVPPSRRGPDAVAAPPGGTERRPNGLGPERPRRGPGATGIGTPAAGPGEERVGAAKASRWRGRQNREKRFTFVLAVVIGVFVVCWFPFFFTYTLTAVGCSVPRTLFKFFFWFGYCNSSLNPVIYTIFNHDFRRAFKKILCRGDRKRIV
Protocol: as §2

Sequence of wild type human alpha2A adrenergic receptor (P08913 whole entry): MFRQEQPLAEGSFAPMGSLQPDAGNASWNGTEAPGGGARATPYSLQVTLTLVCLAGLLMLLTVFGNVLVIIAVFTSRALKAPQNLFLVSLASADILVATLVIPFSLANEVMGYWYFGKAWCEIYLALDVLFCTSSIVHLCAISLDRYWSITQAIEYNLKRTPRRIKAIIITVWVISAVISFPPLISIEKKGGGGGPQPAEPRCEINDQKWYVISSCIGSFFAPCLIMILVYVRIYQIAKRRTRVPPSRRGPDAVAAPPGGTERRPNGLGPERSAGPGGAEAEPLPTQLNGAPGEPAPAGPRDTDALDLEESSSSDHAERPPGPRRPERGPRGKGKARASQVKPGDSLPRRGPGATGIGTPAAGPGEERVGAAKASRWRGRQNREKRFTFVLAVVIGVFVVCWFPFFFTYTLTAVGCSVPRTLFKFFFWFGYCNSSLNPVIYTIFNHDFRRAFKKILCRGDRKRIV
T2 sequence (P16395 other isoform, or with tags, fused parts or gaps F279L/C285T/F286I/W292Y/R293K/K296E/Q299T/D301E/P303A/N304G): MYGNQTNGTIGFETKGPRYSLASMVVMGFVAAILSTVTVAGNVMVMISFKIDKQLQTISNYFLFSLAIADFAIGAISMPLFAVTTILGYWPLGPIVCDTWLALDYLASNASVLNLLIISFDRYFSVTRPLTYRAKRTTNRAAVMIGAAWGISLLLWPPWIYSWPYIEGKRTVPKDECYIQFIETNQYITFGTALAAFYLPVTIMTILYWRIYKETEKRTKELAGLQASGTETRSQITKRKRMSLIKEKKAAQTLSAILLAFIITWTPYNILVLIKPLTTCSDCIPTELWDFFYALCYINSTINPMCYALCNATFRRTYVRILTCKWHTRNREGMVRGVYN

NCCc1c[nH]c2ccc(O)cc12 [serotonin]
agonist-dependent yeast cell growth ([1]; yeast cells containing Ce 5HTR-M3 MAR IC3Δ, 18 hours): agonist-dependent growth response

C[N+](C)(C)CCOC(N)=O [carbachol]
agonist-dependent yeast cell growth [2]: lack of agonist-dependent yeast cell growth | agonist-dependent yeast cell growth [3]: agonist-dependent growth response

CN1CCN2c3ccccc3Cc3ccccc3C2C1 (stereo not shown) [mianserin]
antagonist effect on growth inducing effect of serotonin [1]: blocked

Brc1c(NC2=NCCN2)ccc2nccnc12 [UK14304]
yeast cell growth response [4]: dose-dependent growth response | yeast cell growth response [5]: dose-dependent growth response

CCN(CC)C(=O)N[C@H]1C=C2c3cccc4[nH]cc(c34)C[C@H]2N(C)C1 [lisuride]
antagonist effect on growth inducing effect of serotonin [1]: blocked
